Laboratory results reported in patent publication US20220313698A1, “MODULATORS OF CYSTIC FIBROSIS TRANSMEMBRANE CONDUCTANCE REGULATOR” (Vertex Pharmaceuticals Incorporated, priority 2019, published 2022).

Molecular target: CFTR-mediated chloride transport (Homo sapiens, UniProt P13569)
Test: Corrector Assay A - membrane potential dye assay (enteroid cells)
Settings: for Corrector Assay A % activity: % of chloride transport of triple combination control (1 μM (14S)-dispiro macrocycle + 3 μM tezacaftor + 300 nM ivacaftor); for EC50: read-out: Corrector Assay A EC50, human intestinal enteroid cells, 18-24 h incubation, acute 10 μM forskolin + 300 nM ivacaftor
Procedure: Base medium (ADF+++) consisted of Advanced DMEM/Ham's F12, 2 mM Glutamax, 10 mM HEPES, 1 μg/ml penicillin/streptomycin.
Intestinal enteroid maintenance medium (IEMM) consisted of ADF+++, 1×B27 supplement, 1×N2 supplement, 1.25 mM N-acetyl cysteine, 10 mM Nicotinamide, 50 ng/mL hEGF, 10 nM Gastrin, 1 μg/mL hR-spondin-1, 100 ng/mL hNoggin, TGF-b type 1 inhibitor A-83-01, 100 μg/mL Primocin, 10 μM P38 MAPK inhibitor SB202190.
Bath 1 Buffer consisted of 1 mM MgCl2, 160 mM NaCl, 4.5 mM KCl, 10 mM HEPES, 10 mM Glucose, 2 mM CaCl2).
Chloride Free Buffer consisted of 1 mM Magnesium Gluconate, 2 mM Calcium Gluconate, 4.5 mM Potassium Gluconate, 160 mM Sodium Gluconate, 10 mM HEPES, 10 mM Glucose.
Bath 1 Dye Solution consisted of Bath 1 Buffer, 0.04% Pluronic F127, 20 μM Methyl Oxonol, 30 μM CaCCinh-A01, 30 μM Chicago Sky Blue.
Chloride Free Dye Solution consisted of Chloride Free Buffer, 0.04% Pluronic F127, 20 μM Methyl Oxonol, 30 μM CaCCinh-A01, 30 μM Chicago Sky Blue.
Chloride Free Dye Stimulation Solution consisted of Chloride Free Dye Solution, 10 μM forskolin, 100 μM IBMX, and 300 nM Ivacaftor.
Cells were recovered in cell recovery solution, collected by centrifugation at 650 rpm for 5 min at 4° C., resuspended in TryPLE and incubated for 5 min at 37° C. Cells were then collected by centrifugation at 650 rpm for 5 min at 4° C. and resuspended in IEMM containing 10 μM ROCK inhibitor (RI). The cell suspension was passed through a 40 μm cell strainer and resuspended at 1×10^6 cells/mL in IEMM containing 10 μM RI. Cells were seeded at 5000 cells/well into multi-well plates and incubated for overnight at 37° C., 95% humidity and 5% CO2 prior to assay.
Briefly, cells were washed 5 times in Bath 1 Buffer. Bath 1 Dye Solution was added and the cells were incubated for 25 min at room temperature. Following dye incubation, cells were washed 3 times in Chloride Free Dye Solution. Chloride transport was initiated by addition of Chloride Free Dye Stimulation Solution and the fluorescence signal was read for 15 min. The CFTR-mediated chloride transport for each condition was determined from the AUC of the fluorescence response to acute forskolin and 300 nM N-[2,4-bis(1,1-dimethylethyl)-5-hydroxyphenyl]-1,4-dihydro-4-oxoquinoline-3-carboxamide stimulation. Chloride transport was then expressed as a percentage of the chloride transport following treatment with 1 μM (14S)-8-[3-(2-{Dispiro[2.0.2.1]heptan-7-yl}ethoxy)-1H-pyrazol-1-yl]-12,12-dimethyl-2λ^6-thia-3,9,11,18,23-pentaazatetracyclo[17.3.1.111,14.05,10]tetracosa-1(22),5,7,9,19(23),20-hexaene-2,2,4-trione, 3 μM (R)-1-(2,2-difluorobenzo[d][1,3]dioxol-5-yl)-N-(1-(2,3-dihydroxypropyl)-6-fluoro-2-(1-hydroxy-2-methylpropan-2-yl)-1H-indol-5-yl)cyclopropanecarboxamide and 300 nM acute N-[2,4-bis(1,1-dimethylethyl)-5-hydroxyphenyl]-1,4-dihydro-4-oxoquinoline-3-carboxamide triple combination control (% Activity).

| Structure (SMILES) | Corrector Assay A % activity | EC50 |
| --- | --- | --- |
| CC(C)(C)c1ccc2c(n1)N1C[C@@H](CC[C@H](c3cccc(CCCN)n3)Nc3cccc(n3)S(=O)(=O)NC2=O)CC1(C)C [Compound 134, (14S,17R)-17-[6-(3-aminopropyl)pyridin-2-yl]-8-tert-butyl-12,12-dimethyl-2λ^6-thia-3,9,11,18,23-pentaazatetracyclo[17.3.1.111,14.05,10]tetracosa-1(23),5(10),6,8,19,21-hexaene-2,2,4-trione] | +++ (+++ is >60%) | < 1 µM |
| CC(C)(C)c1ccc2c(n1)N1C[C@@H](CC[C@@H](c3ncccn3)Nc3cccc(n3)S(=O)(=O)NC2=O)CC1(C)C (single isomer, unassigned) [Compound 207] | +++ (+++ is >60%) | < 1 µM |
| CC(C)(C)c1ccc2c(n1)N1C[C@@H](CC[C@@H](c3cc(CCN)ccn3)Nc3cccc(n3)S(=O)(=O)NC2=O)CC1(C)C (single isomer, unassigned) [Compound 84] | +++ (+++ is >60%) | < 1 µM |
| CC1(C)C[C@@H]2CC[C@H](c3ccccn3)Nc3cccc(n3)S(=O)(=O)NC(=O)c3ccc(C4CCC(F)(F)CC4)nc3N1C2 [Compound 324, (14S,17R)-8-(4,4-Difluorocyclohexyl)-12,12-dimethyl-17-(pyridin-2-yl)-2λ^6-thia-3,9,11,18,23-pentaazatetracyclo[17.3.1.111,14.05,10]tetracosa-1(22),5,7,9,19(23),20-hexaene-2,2,4-trione] | +++ (+++ is >60%) | < 1 µM |
| CC(C)(C)c1ccc2c(n1)N1C[C@@H](CCC(c3ccc(C4CC(F)(F)C4)cn3)Nc3cccc(n3)S(=O)(=O)NC2=O)CC1(C)C (stereo partly drawn) [Compound 21] | +++ (+++ is >60%) | < 1 µM |
| CC(C)(C)OC(=O)N1CCC(c2ccnc(C3CC[C@@H]4CN(c5nc(C(C)(C)C)ccc5C(=O)NS(=O)(=O)c5cccc(n5)N3)C(C)(C)C4)c2)CC1 (stereo partly drawn) [Compound 118, tert-butyl 4-{2-[(14S)-8-tert-butyl-12,12-dimethyl-2,2,4-trioxo-2λ^6-thia-3,9,11,18,23-pentaazatetracyclo[17.3.1.111,14.05,10]tetracosa-1(23),5(10),6,8,19,21-hexaen-17-yl]pyridin-4-yl}piperidine-1-carboxylate] | ++ (++ is 30-60%) | < 1 µM |
| CN(C)Cc1ccc(C2CC[C@@H]3CN(c4nc(C(C)(C)C)ccc4C(=O)NS(=O)(=O)c4cccc(n4)N2)C(C)(C)C3)nc1 (stereo partly drawn) [Compound 102] | +++ (+++ is >60%) | < 1 µM |
| CC(C)(C)c1ccc2c(n1)N1CC(CCCNc3cc(O)cc(n3)S(=O)(=O)NC2=O)CC1(C)C (single isomer, unassigned) [Compound 250, 8-tert-butyl-21-hydroxy-12,12-dimethyl-2λ^6-thia-3,9,11,18,23-pentaazatetracyclo[17.3.1.111,14.05,10]tetracosa-1(23),5,7,9,19,21-hexaene-2,2,4-trione] | ++ (++ is 30-60%) | < 1 µM |
| CN1CCN(c2cccc([C@@H]3CC[C@@H]4CN(c5nc(C(C)(C)C)ccc5C(=O)NS(=O)(=O)c5cccc(n5)N3)C(C)(C)C4)n2)CC1 [Compound 194] | ++ (++ is 30-60%) | < 1 µM |
| CC(C)(C)c1ccc2c(n1)N1C[C@@H](CC[C@H](c3cccc(C4CCOCC4)n3)Nc3cccc(n3)S(=O)(=O)NC2=O)CC1(C)C [Compound 148] | +++ (+++ is >60%) | < 1 µM |
| CC(C)(C)c1ccc2c(n1)N1C[C@@H](CCC(c3ccc(CO)cn3)Nc3cccc(n3)S(=O)(=O)NC2=O)CC1(C)C (stereo partly drawn) [Compound 78] | +++ (+++ is >60%) | < 1 µM |
| CC(C)(C)c1ccc2c(n1)N1C[C@@H](CC[C@H](c3cccc(-c4ccn[nH]4)n3)Nc3cccc(n3)S(=O)(=O)NC2=O)CC1(C)C [Compound 77] | ++ (++ is 30-60%) | < 1 µM |
| CC1(C)C[C@@H]2CC[C@@H](c3ccccn3)Nc3cccc(n3)S(=O)(=O)NC(=O)c3ccc(Cc4ccccc4)nc3N1C2 [Compound 160] | ++ (++ is 30-60%) | < 1 µM |
| CC(C)(C)c1ccc2c(n1)N1C[C@@H](CCC(c3ccc(C4CC4)cn3)Nc3cccc(n3)S(=O)(=O)NC2=O)CC1(C)C (stereo partly drawn) [Compound 170] | +++ (+++ is >60%) | < 1 µM |
| Cn1nccc1-c1ccc(C2CC[C@@H]3CN(c4nc(C(C)(C)C)ccc4C(=O)NS(=O)(=O)c4cccc(n4)N2)C(C)(C)C3)nc1 (stereo partly drawn) [Compound 57] | ++ (++ is 30-60%) | < 1 µM |
| CC(C)(C)c1ccc2c(n1)N1C[C@@H](CCC(c3ccc(-c4cc[nH]n4)cn3)Nc3cccc(n3)S(=O)(=O)NC2=O)CC1(C)C (stereo partly drawn) [Compound 129] | +++ (+++ is >60%) | < 1 µM |
| CC(C)(C)c1ccc2c(n1)N1C[C@@H](CCC(CCCC(=O)NCc3ccccc3)Nc3cccc(n3)S(=O)(=O)NC2=O)CC1(C)C (stereo partly drawn) [Compound 15, N-benzyl-4-[(14S)-8-tert-butyl-12,12-dimethyl-2,2,4-trioxo-2λ^6-thia-3,9,11,18,23-pentaazatetracyclo[17.3.1.111,14.05,10]tetracosa-1(23),5(10),6,8,19,21-hexaen-17-yl]butanamide] | +++ (+++ is >60%) | < 1 µM |
| CC(=O)N1CCC(C2CC[C@@H]3CN(c4nc(C(C)(C)C)ccc4C(=O)NS(=O)(=O)c4cccc(n4)N2)C(C)(C)C3)CC1 (stereo partly drawn) [Compound 228, (14S)-17-(1-Acetylpiperidin-4-yl)-8-tert-butyl-12,12-dimethyl-2λ^6-thia-3,9,11,18,23-pentaazatetracyclo[17.3.1.111,14.05,10]tetracosa-1(23),5(10),6,8,19,21-hexaene-2,2,4-trione] | ++ (++ is 30-60%) | < 1 µM |
| CC(C)(C)c1ccc2c(n1)N1C[C@@H](CCC(c3ccc(CCN)cn3)Nc3cccc(n3)S(=O)(=O)NC2=O)CC1(C)C (stereo partly drawn) [Compound 113] | ++ (++ is 30-60%) | < 1 µM |
| CC(C)(C)c1ccc2c(n1)N1C[C@@H](CC[C@@H](c3cccc(C4CCNCC4)n3)Nc3cccc(n3)S(=O)(=O)NC2=O)CC1(C)C [Compound 131] | + (+ is <30%) | > 3 µM |
| CC(C)(C)c1ccc(C2CC[C@@H]3CN(c4nc(C(C)(C)C)ccc4C(=O)NS(=O)(=O)c4cccc(n4)N2)C(C)(C)C3)nc1 (single isomer, unassigned) [Compound 186] | +++ (+++ is >60%) | < 1 µM |
| CC(C)(C)c1ccc2c(n1)N1C[C@@H](CCC(c3ccc(C4CCOCC4)cn3)Nc3cccc(n3)S(=O)(=O)NC2=O)CC1(C)C (single isomer, unassigned) [Compound 155] | +++ (+++ is >60%) | < 1 µM |
| CC(C)(C)c1ccc2c(n1)N1C[C@@H](CC[C@@H](c3cc(C4=CCOCC4)ccn3)Nc3cccc(n3)S(=O)(=O)NC2=O)CC1(C)C (single isomer, unassigned) [Compound 125] | +++ (+++ is >60%) | < 1 µM |
| CC(C)(C)c1ccnc(C2CC[C@@H]3CN(c4nc(C(C)(C)C)ccc4C(=O)NS(=O)(=O)c4cccc(n4)N2)C(C)(C)C3)c1 (single isomer, unassigned) [Compound 75] | +++ (+++ is >60%) | < 1 µM |
